# Source: patent publication US9505741B2, “Prolylhydroxylase inhibitors and methods of use” (CORNELL UNIVERSITY, priority 2010, dated 2016)
# Experiments:
# HIF1α protein = test: HIF immunoblot in SH-SY5Y neuroblastoma cells; format: cell-based, human; conditions: 5 μM, three hours
# Method: After three hours of 5 μM drug treatment, cells were scraped in ice cold PBS and centrifuged at 1,000×g per 5 min. The pellet was used for nuclear extract preparation with the NE-PER Nuclear and Cytoplasmic Extraction kit (Pierce). After SDS-PAGE followed by transfer to a nitrocellulose membrane, the latter was incubated overnight at 4° C. with primary polyclonal antibody against HIF-1α (Upstate) and monoclonal antibody against β-actin (Sigma) (dilution 1:250 and 1:5000, respectively, in Odyssey Blocking Buffer). Secondary fluorophore conjugated Odyssey IRDye-680 and IRD-800 antibodies (LI-COR Biosciences) were added at 1:20,000 in Odyssey Blocking Buffer, and incubated for one hour at room temperature. Immunoreactive proteins were detected using Odyssey IR imaging system (LI-COR Biosciences).
# [1] = test system: HIF ODD-luc reporter (HIF PHD-controlled stability); test: HTS with cell-based HIF ODD-luciferase reporter (SH-SY5Y-ODD-luc cells); set-up: species or system human; conditions: three hours, SH-SY5Y-ODD-luc
# Text: For HTS, a cell-based reporter system was employed. The cell-based reporter system was generated by fusing HIF-1a oxygen degradable domain (ODD) to luciferase (Safran M. et al., PNAS, 2006, 103, 105-110), which represents a cell-based capture assay monitored by the consumption of the luciferase-labeled HIF substrate under the conditions more physiological than in vitro test tubes. In accord with their structure activity relationship in reporter assay, the best “hits” stabilize HIF1, upregulate known HIF target genes in a human neuronal line, and exert neuroprotective effects in established model of oxidative stress in cortical neurons.
# The reporter cell lines constitutively expressing ODD-luc (human neuroblastoma, SH-SY5Y) were stable for more than one year without significant change in their response to canonical PHD inhibitors such as DFO, dihydroxybenzoate (DHB), dimethyloxalylglycine (DMOG), and ciclopirox (FIG. 1B). In order to verify the specificity of luciferase changes as an assay for PHD activity, several control lines were developed: the control line expressing ODD-luc with proline 564 and 567 mutated to Ala generates luciferase fusion that cannot be degraded and experimentally identifies a ceiling level of ODD-luc protein attainable in these cells. The background signal for the wild-type HIF ODD-luc line (PYIP) corresponds to approximately 5-6% of the ODD-luc levels in the control line AYIA (double mutant P564A/P567A line) (FIG. 2). Treatment with 10 μM ciclopirox results in a 10-fold increase of a background signal for the wild-type ODD-luc reporter (PYIP line), i.e. reaches almost 50% of the threshold value (FIG. 2).
# The assay was optimized for HTS format to provide Z values above 0.7. SH-SY5Y-ODD-luc cells were plated into 384—well white flat-bottom plates at 7,000 cell/well in 30 μl of serum and incubated overnight at 37° C., 5% CO2. The next day, compounds were added to a final concentration of 10 μM, plates were incubated for three hours at 37° C., and luciferase activity was measured using SteadyGlo™ reagent (Promega). Each plate had two internal standards, ciclopirox (100%), and DMSO (0%). The reporter activation (%) was calculated as a ratio (L−LDMSO)/(Lciclopirox−LDMSO). Hits were defined as those >25%. HTS of 85,000 compounds was performed at Rockefeller HTS Resource Center. 295 hits from the initial screen have been tested in quadruplicate, 160 were confirmed. Classification into 10 structural clusters has been done manually; 25 hits were singletons.
smiles,measurement,setting,value
"Oc1cccc2cccnc12 [8-hydroxyquinoline, reference compound]",HIF1α protein stabilization,HIF1α protein,not
same,fold reporter activation over background,[1]; 10 μM,4-5 fold
same,activation at 10 µM,"[1]; Homo sapiens, 3 h, read-out: reporter activation (%) relative to ciclopirox (100%) and DMSO (0%)",35 to 45%
